US12697403B2, “Small molecules for dual function positron emission tomography (PET) and cell suicide switches” (THE TRUSTEES OF THE UNIVERSITY OF PENNSYLVANIA, priority 2017, dated 2026)

What was measured:
[1] = target: T1, MDA-MB231 cells transduced with DHFR-iCasp9 (Escherichia coli, UniProt P0ABQ4); details: for activation of the DHFR-iCasp9 suicide gene: MDA-MB231 cells transduced with DHFR-15-iCasp9 or DHFR-18-iCasp9
T1 sequence (P0ABQ4 1-159): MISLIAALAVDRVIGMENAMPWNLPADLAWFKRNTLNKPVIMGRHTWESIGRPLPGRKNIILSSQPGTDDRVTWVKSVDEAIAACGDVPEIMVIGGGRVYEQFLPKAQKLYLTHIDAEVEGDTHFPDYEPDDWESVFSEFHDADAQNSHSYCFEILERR
T1 sequence (P55211 135-416 partner): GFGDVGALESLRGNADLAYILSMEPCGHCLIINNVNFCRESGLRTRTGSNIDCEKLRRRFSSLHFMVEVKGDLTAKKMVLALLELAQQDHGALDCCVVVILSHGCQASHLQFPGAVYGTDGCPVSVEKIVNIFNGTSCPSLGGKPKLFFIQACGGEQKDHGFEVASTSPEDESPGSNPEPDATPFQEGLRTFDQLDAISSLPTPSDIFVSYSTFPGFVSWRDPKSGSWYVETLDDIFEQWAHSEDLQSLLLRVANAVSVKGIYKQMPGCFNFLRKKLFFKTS
Protocol: (§1) Procedure for DHFR-iCasp9 Cell Kill Assay with Bis-TMP Compounds: • Cell culture • Cell lines (MDA-MB231-luc transduced with DHFR-icasp9 with different linker lengths) were cultured in DMEM (Gibco) with 10% fetal bovine serum (Sigma), 100 U/mL penicillin and 100 ug/mL streptomycin (Invitrogen). • Incubation is done at 37° C. with 5% CO2 • Cell assay • Cells were plated on 96 well black plate, 3×10^4 cells/well. • The next day, cells were treated with varying concentrations of Bis-TMP compounds (Bis-TMP-#). • Cells were incubated for 24 hours and luciferin was added (120 ug/mL), after which bioluminescence was measured using Perkin Elmer Enspire Multi-mode Plate reader. Luminescence Assay with HCT116-L106P-tsLuc Cells Following Treatment with Shield-1 Compounds: • Day 1: Plate 50,000 cells/50 uL/well on 96 well black plate. • Day 2: • Add compounds (FP-Shield-1, control Shield-1 in 50 uL volume). • Incubate for 24 h at 37° C. with CO2. • Day 3: Add luciferin and read immediately.

[2] = target: T2, iCasp9 in CAR T cells directed against desmoglein-3 (Homo sapiens, UniProt P55211+P62942, F37V); experiment: Caspase activation / killing of iCasp9 CAR T cells by AP20187; assay type: cell-based; details: T cells transduced with CARs containing iCasp9; read-out: IC50 (fraction of dead cells)
T2 construct: expressed in transfected cells; host or cells: T cells
Description: (§2) The iCasp9 system has been previously incorporated into CAR T cells directed against desmoglein-3 by others for studying pemphigus. T cells were transduced with two different CARs containing iCasp9 (iC9) and one CAR without iC9. The inducible caspase 9 was activated by treatment with varying concentrations of AP20187, a chemical inducer of dimerization which is an analog of AP1903 (FIG. 9). Of note is that the fraction of dead cells is less than 100% because not all of the cells were transduced. The IC50 of AP20187 is <0.1 nM. Nontransduced cells (NTD) and cells without iC9 were not killed by AP20187.

[3] = test system: iCasp9 in CAR T cells directed against desmoglein-3; experiment: as above; assay type: cell-based; details: nontransduced cells (NTD) and cells without iC9
Description: as §2

[4] = target: F36V-FKBP (Homo sapiens, UniProt P62942, F37V); details: cited from earlier work; for binding to mutant F36V-FKBP relative to the wild-type protein: F36V-FKBP versus wild-type FKBP
[5] = test system: iCasp9 modified T cells; details: cited from earlier work
[6] = test system: luciferase fused to the FKBP12 L106P destabilizing domain (L106P-tsLuc); experiment: Luminescence assay with HCT116-L106P-tsLuc cells; assay type: cell-based; details: HCT116 cells expressing L106P-tsLuc, 3 nM to 10 uM
Protocol: as §1

[7] = test system: LID system (F36V-FKBP with degron) fused to CAR in T cells; details: preclinical studies; cited from earlier work

For `COc1cc(Cc2cnc(N)nc2N)cc(OC)c1OCCCCC(=O)NCCCOCCOCCOCCCNC(=O)CCCCOc1c(OC)cc(Cc2cnc(N)nc2N)cc1OC` [Bis-TMP-27, N,N′-(((oxybis(ethane-2,1-diyl))bis(oxy))bis(propane-3,1-diyl))bis(5-(4-((2,4-diaminopyrimidin-5-yl)methyl)-2,6-dimethoxyphenoxy)pentanamide)], the “activation of the DHFR-iCasp9 suicide gene” value [1] was “potent activation of the DHFR-iCasp9 suicide gene at low nM concentrations”, the cells killed ([1]; MDA-MB231 cells transduced with DHFR-18-iCasp9, 24 hours) was ~ 70% and the IC50 ([1]; read-out: IC50 of cell killing, MDA-MB231 cells transduced with DHFR-18-iCasp9, 24 hours) was ~5 nM.

In the case of `CC[C@H](C(=O)N1CCCC[C@H]1C(=O)O[C@H](CCc1ccc(OC)c(OC)c1)c1cccc(OCC(=O)NCC(CNC(=O)COc2cccc([C@@H](CCc3ccc(OC)c(OC)c3)OC(=O)[C@@H]3CCCCN3C(=O)[C@@H](CC)c3cc(OC)c(OC)c(OC)c3)c2)CN(C)C)c1)c1cc(OC)c(OC)c(OC)c1` [AP20187], the IC50 [2] is reported as < 0.1 nM and the “killing of control cells” value [3] is reported as “not killed”.

For `CC[C@H](C(=O)N1CCCC[C@H]1C(=O)O[C@H](CCc1ccc(OC)c(OC)c1)c1cccc(OCC(=O)NCCNC(=O)COc2cccc([C@@H](CCc3ccc(OC)c(OC)c3)OC(=O)[C@@H]3CCCCN3C(=O)[C@@H](CC)c3cc(OC)c(OC)c(OC)c3)c2)c1)c1cc(OC)c(OC)c(OC)c1` [AP1903], the “binding to mutant F36V-FKBP relative to the wild-type protein” value [4] is listed as “greater than three orders of magnitude”, the “adverse events in humans” value ([5]; given to humans) is listed as “without any reported serious adverse events” and the “modified T cells eliminated” value ([5]; patients with GVHD, single dose, within 30 min after administration) is listed as “more than 90%”. The graft-versus-host disease outcome ([5]; patients with GVHD, single dose) was “terminated without abrogating immune reconstitution”.

In the case of `COc1cc(Cc2cnc(N)nc2N)cc(OC)c1OCCCCC(=O)NCCCOCCCNC(=O)CCCCOc1c(OC)cc(Cc2cnc(N)nc2N)cc1OC` [Bis-TMP-21, N,N′-(oxybis(propane-3,1-diyl))bis(5-(4-((2,4-diaminopyrimidin-5-yl)methyl)-2,6-dimethoxyphenoxy)pentanamide)], the “activation of the DHFR-iCasp9 suicide gene” value [1] is reported as “potent activation of the DHFR-iCasp9 suicide gene at low nM concentrations”.

In the case of `CC[C@H](C(=O)N1CCCC[C@H]1C(=O)O[C@H](CCc1ccc(OC)c(OC)c1)c1cccc(OCCN2CCOCC2)c1)c1cc(OC)c(OC)c(OC)c1` [Shield-1], the “protein stabilization (luminescence)” value [6] is listed as “equivalent protein stabilization when compared to the literature”, the “binding to mutant F36V-FKBP relative to the wild-type protein” value [4] is listed as “greater than three orders of magnitude” and the IC50 ([4]; read-out: IC50 for the mutant protein F36V-FKBP) is listed as 3.3 nM. The “IC50 for control of CAR expression” value [7] was “in the nM range”.
